The conditions of data set [1]: cited from earlier work.
A short description of data set [2]: Saturation solubility of aprepitant forms in water and aqueous HPβCD solutions. Conditions: water, thermodynamic from solid, 1A: pH 7.0. It is filed as physicochemical. As for the experimental part: Crystalline Form I of aprepitant, amorphous aprepitant, or aprepitant coprecipitate was added to water and to aqueous HPβCD solutions of different concentrations, with stirring until the saturation solubility was reached. […] 1B—pH adjusted to 1.2 using hydrochloric acid. 1C—pH adjusted to 11 with 0.3% sodium bicarbonate solution. Complexes with HPβCD are prepared by adding aprepitant to aqueous solutions of HPβCD and sonicating the solutions to dissolve aprepitant, until saturation is attained.

Data set [3] can be described thus: Particle size analysis, Malvern Mastersizer. It is filed as physicochemical. An excerpt:
The particle size distribution of a material is generally described in terms of D10, D50, D90, and D[4,3], used routinely to describe the particle sizes or size distributions. It is expressed as volume or weight or surface percentages. Dx as used herein is defined as the size of particles where x percent of the particles have sizes less than the value given. D[4,3] is the volume mean diameter of the particles. D90 for example means that 90% of the particles are below the specified particle size. Particle sizes or particle size distributions of the pharmaceutical compositions of aprepitant of the present invention are determined using any techniques that are known to the person skilled in the art including but not limited to sieve analysis, size analysis by laser light scattering such as using a Malvern particle size analyzer (Malvern Instruments Ltd., Malvern, Worcestershire, United Kingdom) and the like. Pharmaceutical compositions of aprepitant of the present invention are generally fine, uniform and free of agglomerates.
As used herein, the term “mean particle size” refers to the distributions of aprepitant particles, including aprepitant co-precipitate particles, wherein about 50 percent of all particles measured have a particle size less than the defined mean particle size value and about 50 percent of all measurable particles measured have a particle size greater than the defined mean particle size value; this can be identified by the term “D50.” Similarly, a particle size distribution where 90 percent of the particles have sizes less than a specified size is referred to as “D90” and a distribution where 10 percent of particles have sizes less than a specified size is referred to as “D10.”
Particle size analysis was carried out using a Malvern Mastersizer.

Values after ≈ are worked out from the molar mass of the structure shown.

As to `C[C@@H](O[C@H]1OCCN(Cc2n[nH]c(=O)[nH]2)[C@H]1c1ccc(F)cc1)c1cc(C(F)(F)F)cc(C(F)(F)F)c1` [Aprepitant, 5-[[(2R,3S)-2-[(1R)-1-[3,5-bis(trifluoromethyl)phenyl]ethoxy]-3-(4-fluorophenyl)-4-morpholinyl]methyl]-1,2-dihydro-3H-1,2,4-triazol-3-one], the solubility in acetonitrile result in data set [1] (acetonitrile) is reported as “slightly soluble”. Moreover, the solubility in ethanol result in data set [1] (ethanol) was “sparingly soluble”. Further, the “solubility in isopropyl alcohol” value in data set [1] (isopropyl alcohol) was “sparingly soluble”. Further, the solubility in water result in data set [1] (water) was “practically insoluble”.

For `C[C@@H](O[C@H]1OCCN(Cc2n[nH]c(=O)[nH]2)[C@H]1c1ccc(F)cc1)c1cc(C(F)(F)F)cc(C(F)(F)F)c1` [Crystalline aprepitant Form I], the concentration in solution in data set [2] (solubility) was 0.5 µg/mL (≈ 0.936 µM). Besides, the “Particle Size D10” value in data set [3] (D10) is given as 17.1 μm. For the same molecule, the “Particle Size D50” value in data set [3] (D50) worked out at 29.2 μm. Besides, the “Particle Size D90” value in data set [3] (D90) stood at 52.0 μm.

One may read the solubility as the dissolved amount per volume that the medium holds.

The record behind these values is US20110009362A1, “SOLUBILITY-ENHANCED FORMS OF APREPITANT AND PHARMACEUTICAL COMPOSITIONS THEREOF” (DR. REDDY'S LABORATORIES LTD., priority 2008, published 2011).
